# Like-named read-outs stand apart in the source and are kept apart here.
# Assays:
# Plutella xylostella = experiment: Insecticidal testing against diamondback moth; format: in vivo; conditions: foliar, 144 h, concentration 100 ppm, cabbage leaf dip, third-stage larvae, after 6 days, read-out: pesticidal rate
# From the text: Insecticidal Testing Against Diamondback Moth (Plutella xylostella)
# Ctenocephalides felis [1] = experiment: In vitro contact test with fleas; conditions: read-out: insecticidal activity; for pest or weed control at 0.04 µg/cm2, 0.04 µg/cm2: dose 0.04 μg/cm^2, dead or moribund fleas after 48 h; for pest or weed control at 0.2 µg/cm2, 0.2 µg/cm2: dose 0.2 μg/cm^2, dead or moribund fleas after 48 h; for pest or weed control at 1 µg/cm2, 1 µg/cm2: dose 1 μg/cm^2, dead or moribund fleas after 48 h
# Procedure, shortened: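 Adult male and female cat fleas (5-10 per tube) placed in glass tubes coated with compound from acetone solution (900 ppm gives 5 μg/cm^2), kept at room temperature and ambient humidity. After 48 h, motionless or uncoordinated fleas scored dead or moribund; activity expressed as % dead or moribund.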
# Ctenocephalides felis [2] = experiment: Systemic treatment in-vivo test with cat flea on rats; conditions: Ctenocephalides felis, ip, intraperitoneal injection
# Procedure, shortened: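 Rats dosed intraperitoneally per body weight in glycerol formal (up to 25% NMP for poorly soluble compounds). 30 D. variabilis nymphs released on treatment day and weekly, 30 C. felis fleas 24 h later; live attached engorged ticks counted at 48 h (±4 h), live fleas at 24 h, efficacy versus placebo group.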
# Spodoptera litura = experiment: Insecticidal testing against common cutworm; format: in vivo; conditions: foliar, 144 h, concentration 100 ppm, cabbage leaf dip, second-stage larvae, after 6 days, read-out: pesticidal rate
# From the text: Insecticidal Testing Against Common Cutworm (Spodoptera litura)
# Dermacentor variabilis = experiment: In vitro contact test with adult hard ticks (Dermacentor variabilis); conditions: read-out: acaricidal activity; for pest or weed control at 0.2 µg/cm2, 0.2 µg/cm2: dose 0.2 μg/cm^2, 48 h; for pest or weed control at 1 µg/cm2, 1 µg/cm2: dose 1 μg/cm^2, 48 h
# Procedure, shortened: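 Adult R. sanguineus, I. ricinus, D. variabilis or A. americanum nymphs exposed in glass vials coated with compound from acetone (900 ppm gives 5 μg/cm^2). Held 48 h at room temperature (R. sanguineus) or 21° C., 85% rel. hum.; then heated at 45-50° C. ≤5 min, motionless or uncoordinated ticks scored dead/moribund.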
# Ctenocephalides felis [3] = experiment: Ctenocephalides felis in-vitro feeding test with fleas (CTECFE oral); conditions: 48 hours, read-out: insecticidal feeding activity; for pest or weed control at 0.0064 ppm: dose 0.0064 ppm in citrated cattle blood; for pest or weed control at 0.032 ppm: dose 0.032 ppm in citrated cattle blood; for pest or weed control at 0.16 ppm: dose 0.16 ppm in citrated cattle blood; for pest or weed control at 0.8 ppm: dose 0.8 ppm in citrated cattle blood; for pest or weed control at 4 ppm: dose 4 ppm in citrated cattle blood
# Procedure, shortened: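 About 20 unfed adult cat fleas fed through parafilm on citrated cattle blood containing test substance (DMSO solution diluted in blood), held at about 37° C. Kill rate scored after 48 hours, 100% meaning all fleas dead.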
# [4] = tested on: Rhipicephalus (Boophilus) microplus; experiment: In vitro injection test with Rhipicephalus (Boophilus) microplus (BOOPMI Inj); conditions: 168 h, laid fertile eggs after 7 days, read-out: acaricidal activity; for pest or weed control at 32 ng: dose 0.032 μg/animal injected; for pest or weed control at 0.00016 mg: dose 0.16 μg/animal injected; for pest or weed control at 0.0008 mg: dose 0.8 μg/animal injected
# Procedure, shortened: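 Test substance in DMSO; 1 μl injected into abdomen of each of 5 engorged adult female ticks, then held at 28° C., 85% rel. hum. Activity scored after 7 days from laying of fertile eggs: 100% = no eggs or all infertile, 0% = all eggs fertile.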
# [5] = SD 2, read-out: Geometric mean percent reduction in live flea (Ctenocephalides felis) counts compared to untreated control rats
# [6] = SD 9, read-out: Geometric mean percent reduction in live flea (Ctenocephalides felis) counts compared to untreated control rats
# [7] = SD 16, read-out: Geometric mean percent reduction in live flea (Ctenocephalides felis) counts compared to untreated control rats
# [8] = SD 23, read-out: Geometric mean percent reduction in live flea (Ctenocephalides felis) counts compared to untreated control rats
smiles,measurement,setting,value
"CN(C(=O)c1ccc(F)nc1)c1cccc(C(=O)Nc2c(I)cc(C(F)(C(F)(F)F)C(F)(F)F)cc2C(F)(F)F)c1F [Compound 115, 6-fluoro-N-(2-fluoro-3-((2-iodo-4-(perfluoropropan-2-yl)-6-(trifluoromethyl)phenyl)carbamoyl)phenyl)-N-methylnicotinamide]",pest or weed control at 100 ppm,Plutella xylostella,≥ 70%
same,"pest or weed control at 0.04 µg/cm2, 0.04 µg/cm2",Ctenocephalides felis [1],95%
same,"pest or weed control at 0.2 µg/cm2, 0.2 µg/cm2",Ctenocephalides felis [1],95%
same,"pest or weed control at 1 µg/cm2, 1 µg/cm2",Ctenocephalides felis [1],95%
same,inhibition in vivo at 2 mg/kg,Ctenocephalides felis [2]; [5],100%
same,inhibition in vivo at 2 mg/kg,Ctenocephalides felis [2]; [6],98%
same,inhibition in vivo at 2 mg/kg,Ctenocephalides felis [2]; [7],73%
same,inhibition in vivo at 10 mg/kg,Ctenocephalides felis [2]; [5],100%
same,inhibition in vivo at 10 mg/kg,Ctenocephalides felis [2]; [6],100%
same,inhibition in vivo at 10 mg/kg,Ctenocephalides felis [2]; [7],99%
same,inhibition in vivo at 10 mg/kg,Ctenocephalides felis [2]; [8],47%
same,inhibition in vivo at 10 mg/kg,"Ctenocephalides felis [2]; SD 30, read-out: Geometric mean percent reduction in live flea (Ctenocephalides felis) counts compared to untreated control rats",8%
same,pest or weed control at 100 ppm,Spodoptera litura,≥ 70%
same,"pest or weed control at 0.2 µg/cm2, 0.2 µg/cm2",Dermacentor variabilis,90%
same,"pest or weed control at 1 µg/cm2, 1 µg/cm2",Dermacentor variabilis,90%
same,pest or weed control at 0.0064 ppm,Ctenocephalides felis [3],95%
same,pest or weed control at 0.032 ppm,Ctenocephalides felis [3],95%
same,pest or weed control at 0.16 ppm,Ctenocephalides felis [3],95%
same,pest or weed control at 0.8 ppm,Ctenocephalides felis [3],95%
same,pest or weed control at 4 ppm,Ctenocephalides felis [3],95%
same,pest or weed control at 32 ng,[4],100%
same,pest or weed control at 0.00016 mg,[4],100%
same,pest or weed control at 0.0008 mg,[4],100%
CN(C(=O)c1ccc(F)cc1)c1cccc(C(=O)Nc2c(I)cc(C(F)(C(F)(F)F)C(F)(F)C(F)(F)F)cc2OC(F)F)c1F (centres unmarked) [Compound 103],pest or weed control at 100 ppm,Plutella xylostella,≥ 70%
same,"pest or weed control at 0.04 µg/cm2, 0.04 µg/cm2",Ctenocephalides felis [1],95%
same,"pest or weed control at 0.2 µg/cm2, 0.2 µg/cm2",Ctenocephalides felis [1],95%
same,"pest or weed control at 1 µg/cm2, 1 µg/cm2",Ctenocephalides felis [1],95%
same,inhibition in vivo at 10 mg/kg,Ctenocephalides felis [2]; [5],100%
same,inhibition in vivo at 10 mg/kg,Ctenocephalides felis [2]; [6],92%
same,inhibition in vivo at 10 mg/kg,Ctenocephalides felis [2]; [7],70%
same,inhibition in vivo at 10 mg/kg,Ctenocephalides felis [2]; [8],20%
same,pest or weed control at 100 ppm,Spodoptera litura,≥ 70%
same,"pest or weed control at 0.04 µg/cm2, 0.04 µg/cm2","Dermacentor variabilis; dose 0.04 μg/cm^2, 48 h",90%
same,"pest or weed control at 0.2 µg/cm2, 0.2 µg/cm2",Dermacentor variabilis,90%
same,"pest or weed control at 1 µg/cm2, 1 µg/cm2",Dermacentor variabilis,90%
same,pest or weed control at 0.0064 ppm,Ctenocephalides felis [3],95%
same,pest or weed control at 0.032 ppm,Ctenocephalides felis [3],95%
same,pest or weed control at 0.16 ppm,Ctenocephalides felis [3],95%
same,pest or weed control at 0.8 ppm,Ctenocephalides felis [3],95%
same,pest or weed control at 4 ppm,Ctenocephalides felis [3],95%
same,pest or weed control at 6.4 ng,[4]; dose 0.0064 μg/animal injected,100%
same,pest or weed control at 32 ng,[4],100%
same,pest or weed control at 0.00016 mg,[4],100%
same,pest or weed control at 0.0008 mg,[4],100%
